Measurements published in US10913736B2 (UNIVERSITY OF WASHINGTON, priority 2014, dated 2021).
Several values for one entry are separate records, joined by “and”; a condition that tells them apart may be missing. Equal entries are not always repeated. Where two headings read alike, the source gives them in different places.

Tests used:
[1] = target: MetRS (T. brucei) (Trypanosoma brucei brucei, UniProt Q38C91); test: MetRS (T. brucei) ATP depletion assay using Kinase-Glo; format: biochemical
[2] = tested on: T. brucei; test: Growth inhibition assay of T. brucei cell cultures (Alamar Blue, 48 h); format: cell-based
[3] = tested on: L. amaz; test: L. amaz growth inhibition EC50; format: cell-based; details: read-out: F) L. amaz EC50
[4] = tested on: T. cruzi; test: T. cruzi growth inhibition EC50; format: cell-based; details: Trypanosoma cruzi; read-out: C) T. cruzi EC50
[5] = target: MetRS (S. aureus) (Staphylococcus aureus, UniProt Q5HII6); test: biochemical; details: ATP depletion, Kinase-Glo; read-out: H) MetRS (S. aureus) ATP depletion assay using Kinase-Glo with modified cpd dilution method, IC50
MetRS (S. aureus), sequence (Q5HII6 whole entry): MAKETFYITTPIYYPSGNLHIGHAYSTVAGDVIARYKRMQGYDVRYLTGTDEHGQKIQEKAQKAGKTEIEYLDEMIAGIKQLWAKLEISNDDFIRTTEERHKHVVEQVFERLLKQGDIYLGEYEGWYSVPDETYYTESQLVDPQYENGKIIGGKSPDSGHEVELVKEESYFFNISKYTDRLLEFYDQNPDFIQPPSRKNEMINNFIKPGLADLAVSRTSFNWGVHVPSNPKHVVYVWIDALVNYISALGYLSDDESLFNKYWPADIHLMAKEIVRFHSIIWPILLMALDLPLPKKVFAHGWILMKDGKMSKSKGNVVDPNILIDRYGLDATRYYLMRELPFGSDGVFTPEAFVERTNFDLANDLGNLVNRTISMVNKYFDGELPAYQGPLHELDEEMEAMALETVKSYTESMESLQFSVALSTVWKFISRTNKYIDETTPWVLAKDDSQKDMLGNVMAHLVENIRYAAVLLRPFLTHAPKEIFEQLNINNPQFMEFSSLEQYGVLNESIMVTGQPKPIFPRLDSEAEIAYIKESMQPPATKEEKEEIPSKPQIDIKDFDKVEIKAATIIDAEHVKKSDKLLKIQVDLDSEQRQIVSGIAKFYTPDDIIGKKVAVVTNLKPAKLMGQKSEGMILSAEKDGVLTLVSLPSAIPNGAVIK

[6] = Trypanosoma brucei; read-out: B) T. brucei EC50

MetRS (T. brucei), sequence (Q38C91 entry or part of it): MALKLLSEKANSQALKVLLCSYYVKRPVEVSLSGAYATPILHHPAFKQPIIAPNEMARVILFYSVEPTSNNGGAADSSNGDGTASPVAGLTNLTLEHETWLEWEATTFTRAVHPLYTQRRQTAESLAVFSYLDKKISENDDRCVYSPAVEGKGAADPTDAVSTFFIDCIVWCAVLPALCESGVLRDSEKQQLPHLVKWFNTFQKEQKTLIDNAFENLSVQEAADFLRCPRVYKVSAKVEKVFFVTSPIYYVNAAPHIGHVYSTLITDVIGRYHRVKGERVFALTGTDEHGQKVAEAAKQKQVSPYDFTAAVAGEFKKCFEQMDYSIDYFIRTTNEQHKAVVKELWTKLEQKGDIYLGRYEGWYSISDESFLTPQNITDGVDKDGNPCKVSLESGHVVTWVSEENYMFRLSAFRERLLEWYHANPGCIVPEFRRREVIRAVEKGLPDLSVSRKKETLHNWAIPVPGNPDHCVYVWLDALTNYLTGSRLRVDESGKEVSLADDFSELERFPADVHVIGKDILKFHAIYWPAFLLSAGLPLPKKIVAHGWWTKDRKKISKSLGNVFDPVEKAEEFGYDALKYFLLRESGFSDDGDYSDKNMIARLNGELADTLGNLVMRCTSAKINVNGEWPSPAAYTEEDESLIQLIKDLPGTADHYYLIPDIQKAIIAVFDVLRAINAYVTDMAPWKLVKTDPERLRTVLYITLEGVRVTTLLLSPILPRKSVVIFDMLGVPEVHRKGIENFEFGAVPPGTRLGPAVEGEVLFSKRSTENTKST

SMILES | IC50 [1] | EC50 [2, 6] [nM] | EC50 [3] [nM] | EC50 [4] [nM] | IC50 [5] [nM] | EC50 ([2]; read-out: B) T. brucei EC50)
COc1c(Cl)cc(Cl)cc1CN[C@H]1CCCN(c2nc3nc(Cl)ccc3[nH]2)C1 [Compound 1911, (S)-1-(5-chloro-1H-imidazo[4,5-b]pyridin-2-yl)-N-(3,5-dichloro-2-methoxybenzyl)piperidin-3-amine] | 21 nM | 357 | 5150 |  |  | 
CC(=O)N(CCN(C)c1nc2nc(Cl)ccc2[nH]1)[C@@H]1CCNc2c(Cl)cc(Cl)cc21 [Compound 1938, N-[2-({5-chloro-3H-imidazo[4,5-b]pyridin-2-yl}(methyl)amino)ethyl]-N-[(4R)-6,8-dichloro-1,2,3,4-tetrahydroquinolin-4-yl]acetamide] | 36 nM |  |  | 266 | 1260 | 
Clc1ccc2[nH]c([C@H]3CCCN(Cc4ccc(Cl)c(Cl)c4)C3)nc2n1 [Compound 1870, (S)-5-chloro-2-(1-(3,4-dichlorobenzyl)piperidin-3-yl)-1H-imidazo[4,5-b]pyridine] | 54 nM | 458 |  | 2610 | 837 | 
CN(CCNCc1cc(Cl)cc(Cl)c1)c1nc2nc(F)ccc2[nH]1 [Compound 1913, N-(2-{[(3,5-dichlorophenyl)methyl]amino}ethyl)-5-fluoro-N-methyl-1H-imidazo[4,5-b]pyridin-2-amine] | 26 nM | 113 | > 1000 |  | 691 | 
C[C@@H](Cc1nc2ccc(Cl)cc2[nH]1)NCc1cc(Cl)cc(Cl)c1 [Compound 1805, [(2S)-1-(6-chloro-1H-1,3-benzodiazol-2-yl)propan-2-yl][(3,5-dichlorophenyl)methyl]amine] | 56 nM and 27 nM | 1690 |  | 5610 | > 1000 | 
CCN(CCNCc1cc(Cl)cc(Cl)c1)c1nc2nc(Cl)ccc2[nH]1 [Compound 1949, 5-chloro-N-(2-{[(3,5-dichlorophenyl)methyl]amino}ethyl)-N-ethyl-3H-imidazo[4,5-b]pyridin-2-amine] | 18 nM | 79.9 |  | 1310 | 606 | 85.5 nM
CC(=O)N(CCN(C)c1nc2ccc(Cl)nc2[nH]1)Cc1cc(Cl)cc(Cl)c1 [Compound 1926, N-(3,5-dichlorobenzyl)-N-(2-(5-chloro-N-methyl-1H-imidazo[4,5-b]pyridin-2-ylamino)ethyl)acetamide] | 20 nM | 75.5 |  | 1330 | 172 | 
COc1ccc(Oc2cc(NCc3nc4ccc(F)nc4[nH]3)nc(Cl)n2)c(Cl)c1 [Compound 1796, 6-(2-chloro-4-methoxyphenoxy)-2-chloro-N-((5-fluoro-3H-imidazo[4,5-b]pyridin-2-yl)methyl)pyrimidin-4-amine] | 17 nM |  | > 1000 | 521 | 55 | 
CN(CCN[C@@H]1CCNc2c(Cl)cc(Cl)cc21)c1nc2nc(Cl)ccc2[nH]1 [Compound 1917, 5-chloro-N-(2-{[(4R)-6,8-dichloro-1,2,3,4-tetrahydroquinolin-4-yl]amino}ethyl)-N-methyl-3H-imidazo[4,5-b]pyridin-2-amine] | 21 nM |  | 663 | 15.7 | 137 | 
COc1ccc(Oc2nc(NCc3nc4ccc(F)nc4[nH]3)nc(NCc3nc4ccc(F)nc4[nH]3)n2)c(Cl)c1 [Compound 1883, 6-(2-chloro-4-methoxyphenoxy)-2-N,4-N-bis({5-fluoro-3H-imidazo[4,5-b]pyridin-2-yl}methyl)-1,3,5-triazine-2,4-diamine] | 39 nM | 5620 |  | 17400 | 333 | 3670 nM
CCOc1c(Br)cc(Br)cc1CN[C@H]1CCCN(c2nc3nc(Cl)ccc3[nH]2)C1 [Compound 1910, (S)-1-(5-chloro-1H-imidazo[4,5-b]pyridin-2-yl)-N-(3,5-dibromo-2-ethoxybenzyl)piperidin-3-amine] | 19 nM | 39.5 |  | 934 | 22 | 
COc1ccc(Oc2ccnc(NCc3nc4ccccc4[nH]3)c2)c(Cl)c1 [Compound 1933, N-((1H-benzo[d]imidazol-2-yl)methyl)-4-(2-chloro-4-methoxyphenoxy)pyridin-2-amine] | 22 nM | 102 |  | 1710 | 40 | 
COc1ccc(Oc2cc(NCc3nc4ccc(F)nc4[nH]3)nc(N3CCN(c4cnccn4)CC3)n2)c(Cl)c1 [Compound 1797, 6-(2-chloro-4-methoxyphenoxy)-N-((5-fluoro-3H-imidazo[4,5-b]pyridin-2-yl)methyl)-2-(4-(pyrazin-2-yl)piperazin-1-yl)pyrimidin-4-amine] | 23 nM |  | > 1000 | 432 | 2 | 
Clc1cc(Cl)cc(CNCC2CCCN2c2nc3nc(Cl)ccc3[nH]2)c1 (centres unmarked) [Compound 1916, 1-(1-(5-chloro-1H-imidazo[4,5-b]pyridin-2-yl)pyrrolidin-2-yl)-N-(3,5-dichlorobenzyl)methanamine] | 58 nM | 480 | 9550 |  |  | 
CN(CCN(CCN(C)c1nc2nc(F)ccc2[nH]1)[C@@H]1CCNc2c(Cl)cc(Cl)cc21)c1nc2nc(F)ccc2[nH]1 [Compound 1939, (R)—N1-(6,8-dichloro-1,2,3,4-tetrahydroquinolin-4-yl)-N2-(5-fluoro-1H-imidazo[4,5-b]pyridin-2-yl)-N1-(2-((5-fluoro-1H-imidazo[4,5-b]pyridin-2-yl)(methyl)amino)ethyl)-N2-methylethane-1,2-diamine] | 73 nM |  |  | 176 | 271 | 
Fc1ccc2[nH]c(N3CCCC(NCc4cc(Cl)cc(Cl)c4)C3)nc2n1 (centres unmarked) [Compound 1886, N-(3,5-dichlorobenzyl)-1-(5-fluoro-1H-imidazo[4,5-b]pyridin-2-yl) piperidin-3-amine] | 14 nM | 299 |  | 5160 | 505 | 
Clc1cc(Cl)cc(CNC2CCCN(c3nc4nc(Cl)ccc4[nH]3)C2)c1 (centres unmarked) [Compound 1811, 1-(5-chloro-1H-imidazo[4,5-b]pyridin-2-yl)-N-(3,5-dichlorobenzyl) piperidin-3-amine] | 8 nM | 81.8 |  | 2510 | 709 | 
O=C(Cc1cc(Cl)cc(Cl)c1)NCc1nc2ccc(Cl)nc2[nH]1 [Compound 1875, N-({5-chloro-3H-imidazo[4,5-b]pyridin-2-yl}methyl)-2-(3,5-dichlorophenyl)acetamide] | 38 nM | 1900 |  | 13100 |  | 
CC(=O)N(Cc1cc(Cl)cc(Cl)c1)C1CCCC(c2nc3nc(Cl)ccc3[nH]2)C1 (centres unmarked) [Compound 1789, N-(3-(5-chloro-1H-imidazo[4,5-b]pyridin-2-yl)cyclohexyl)-N-(3,5-dichlorobenzyl)acetamide] | 89 nM | 2810 |  | 4990 |  | 
Clc1ccc(CNC2CCCC(c3nc4nc(Cl)ccc4[nH]3)C2)c(Cl)c1 (centres unmarked) [Compound 1809, 3-(5-chloro-1H-imidazo[4,5-b]pyridin-2-yl)-N-(2,4-dichlorobenzyl) cyclohexanamine] | 43 nM | 821 |  | 3460 |  | 
COc1ccc(Oc2nc(NCc3nc4ccc(F)nc4[nH]3)nc(Oc3ccc(OC)cc3Cl)n2)c(Cl)c1 [Compound 1884, 4,6-bis(2-chloro-4-methoxyphenoxy)-N-({5-fluoro-3H-imidazo[4,5-b]pyridin-2-yl}methyl)-1,3,5-triazin-2-amine] | 24 nM | 55.9 |  | 773 | 122 | 
Clc1cc(Cl)c2c(c1)C(N[C@H]1CCCN(c3nc4nc(Cl)ccc4[nH]3)C1)CCN2 (stereo partly drawn) [Compound 1899, 6,8-dichloro-N—((S)-1-(5-chloro-1H-imidazo[4,5-b]pyridin-2-yl)piperidin-3-yl)-1,2,3,4-tetrahydroquinolin-4-amine] | 89 nM |  |  | 260 | 323 | 
Clc1cc(Cl)cc(NCC2CCCN(c3nc4nc(Cl)ccc4[nH]3)C2)c1 (centres unmarked) [Compound 1862, 3,5-dichloro-N-((1-(5-chloro-1H-imidazo[4,5-b]pyridin-2-yl)piperidin-3-yl)methyl)aniline] | 31 nM | 343 |  | 4920 | 754 | 
Clc1cc(Br)cc(CN[C@H]2CCCN(c3nc4nc(Cl)ccc4[nH]3)C2)c1 [Compound 1912, (S)—N-(3-bromo-5-chlorobenzyl)-1-(5-chloro-1H-imidazo[4,5-b]pyridin-2-yl)piperidin-3-amine] | 8 nM | 70.6 | 7730 | 2250 |  | 
Clc1cc(Cl)cc(CNCCCc2nc3ccc(Cl)nc3[nH]2)c1 [Compound 1881, (3-{5-chloro-3H-imidazo[4,5-b]pyridin-2-yl}propyl)[(3,5-dichlorophenyl)methyl]amine] | 35 nM | 307 |  | 5870 |  | 
Clc1cc(Cl)cc(CNCCNc2nc3ccc(Cl)nc3[nH]2)c1 [Compound 1849, [2-({5-chloro-3H-imidazo[4,5-b]pyridin-2-yl}amino)ethyl][(3,5-dichlorophenyl)methyl]amine] | 33 nM | 60.7 |  | 1810 | 3110 | 
Fc1ccc2[nH]c(N3CCC[C@H](NCc4cc(Cl)cc(Cl)c4)C3)nc2n1 [Compound 1900, (S)—N-(3,5-dichlorobenzyl)-1-(5-fluoro-1H-imidazo[4,5-b]pyridin-2-yl)piperidin-3-amine] | 27 nM | 128 |  | 2240 | 303 | > 200 nM
CC(Cc1nc2ccc(Cl)cc2[nH]1)NCc1cc(Cl)cc(Cl)c1 (centres unmarked) [Compound 1794, [1-(5-chloro-1H-1,3-benzodiazol-2-yl)propan-2-yl][(3,5-dichlorophenyl)methyl]amine] | 31 nM and 17 nM and 72 nM and 70 nM | 1330 |  | 5230 | 22600 | 1870 nM and 1840 nM
